According to patent publication US5843481A, “Treatment of proliferative disorders, metastasaes, and drug resistant tumors with vanadate compounds and derivatives or analogues thereof” (priority 1994, dated 1998):
“Also recorded” adds a separate entry of the source.

Legend:
collagenase [1] = assay: Northern blot analysis of collagenase mRNA expression in chondrocytes; format: cell-based, bovine
Description: (§1) The cytokine interleukin 1 (IL 1) has been used to identify the intermediate second messengers which regulate the expression of fos and jun.
(§2) Although IL 1 stimulated superoxide production, it was not known whether IL 1 induced fos and jun expression was dependent on the production of superoxides. In order to elucidate this possibility, the effect of DPI on fos and jun mRNA levels induced by IL 1 was investigated. RNA from chondrocytes treated with IL 1 in the presence and absence of DPI were analyzed by Northern blot analysis using either fos or collagenase cDNA probes. […] Similar data has been obtained for IL 1 induced jun expression. Furthermore, inhibition of fos and jun expression by DPI was sufficient to suppress IL 1 induced and constitutive collagenase expression.
Cells were also incubated as described above with 20 mM N-acetylcyateine for 20 min. and then incubated with IL 1 for an additional 1 or 12 hours. The RNA was extracted and examined by Northern blot analysis using cDNA probes for c-fos and collagenase. N-acetylcysteine which is converted to GSH intracellularly was also found to reduce the levels of fos and collagenase expression in response to IL 1 (FIG. 5). Presumably the higher intracellular levels of GSH reduced H2 O2 and superoxide levels and suppressed the induction of fos and collagenase expression.

MDAY-D2 [2] = assay: MDAY-D2 tumor growth in mice, combination therapy, Example 7; format: in vivo
Procedure: Twenty mice were injected subcutaneously with 2×10^5 cells on Day 1. At day 4, the mice were divided into four groups of five mice. Group one (control) received subcutaneous injections of 50 μl of water. Group two received daily intraperitoneal injections of 50 μl of 250 mM N-acetylcysteine. Group three received daily subcutaneous injections of 50 μl of 10 mg/ml of orthovanadate. Group four received daily intraperitoneal injections of 50 μl of […] N-acetylcysteine and 20 minutes later received 50 μl of subcutaneous injection of 50 μl of 10 mg/ml of orthovanadate. On day 10 the treatment was stopped. The animals were sacrificed on Day 13 and analyzed for tumor growth.

fos = assay: Northern blot analysis of fos mRNA expression in chondrocytes; format: cell-based, bovine; settings: for fos expression in response to factors such as IL 1 or arachidonic acid: summary statement; for expression of c-fos: stimulation, 1 hour, bovine chondrocytes, AA 3 μM
Procedure: as §1
In order to elucidate this possibility, the effect of DPI on fos and jun mRNA levels induced by IL 1 was investigated. RNA from chondrocytes treated with IL 1 in the presence and absence of DPI were analyzed by Northern blot analysis using either fos or collagenase cDNA probes.
Since superoxides are rapidly converted to hydrogen peroxide in the cell by superoxide dismutase, whether hydrogen peroxide could mimic the effect of IL 1 in the induction of fos expression was investigated. RNA was extracted from chondrocytes (Kandel et al. supra) treated with H2 O2 for 30, 60 and 90 minutes and examined by Northern blot analysis using a fos cDNA probe.
(§3) Bovine articular chondrocytes were isolated and plated as previously described (Kandel R. A. et al. Biochim. Biophys. Acta. 1053, 130-134, 1990). In order to determine the effect of orthovanadate on IL 1 and PMA (phorbol ester) induced responses, chondrocytes were incubated with orthovanadate (100 μM) for 2 hours before stimulation with IL 1 (10 ng/ml) or PMA ([…]). collagenase production was determined by incubating chondrocytes for 24 hours with IL 1 or PMA and the cell conditioned medium was assayed for collagenase activity using an ELISA procedure as described previously (Kandel et al. supra) PLA2 activity was measured by incorporating ^3 H-arachidonic acid (^3 H-AA) into the cells and then incubating the cells with medium containing 1 mg/ml BSA, either alone or in the presence of IL 1 or PMA, for 10 min. as previously described (Conquer, J. A. […], Biochim. Biophys. Acta. 1134, 1-6). The amount of ^3 H-AA liberated into the supernatant was determined. To measure PGE2 production, chondrocytes were incubated for 6 hours in Ham's F12 medium, either alone or with IL 1 or PMA. The supernatant was analyzed by RIA using an antibody specific for PGE2 (Dr. S. A. Jones, Mount Sinai Hospital, Toronto, Can.). In order to examine the expression of c-fos and c-jun, chondrocytes were incubated for 1 hour in the presence of IL-1, PMA or AA (3 μM). Chondrocytes were washed in PBS and the total RNA extracted as previously described (Cruz. et al, 1991, Biochem. J. 277, 327-330). RNA samples were run on formaldehyde agarose gels and transferred to nylon membrane for northern analysis using cDNA probes for c-fos and c-jun.
Cells were also incubated as described above with 20 mM N-acetylcyateine for 20 min. and then incubated with IL 1 for an additional 1 or 12 hours. The RNA was extracted and examined by Northern blot analysis using cDNA probes for c-fos and collagenase.

jun = assay: Northern blot analysis of jun mRNA expression in chondrocytes; format: cell-based, bovine; settings: for jun expression in response to factors such as IL 1 or arachidonic acid: summary statement; for expression of c-jun: stimulation, 1 hour, bovine chondrocytes, AA 3 μM
Description: as §1, §2, §3

superoxides and H2O2 = assay: Levels of superoxides and H2O2 in cells (conclusion of Example 1); format: cell-based, bovine; settings: conclusion from results
Procedure: as §3, with “Chondrocytes were washed in PBS and the total RNA extracted as previously described (Cruz. et al, 1991, Biochem. J. 277, 327-330). RNA samples were run on formaldehyde agarose gels and transferred to nylon membrane for northern analysis using cDNA probes for c-fos and c-jun.” left out

carcinogenesis = settings: reported by G. Shklar et al.; cited from earlier work
[3] = test system: KB8, KB8-5 and KB85-11 cells; settings: background statement; cited from earlier work
MDAY-D2 [4] = assay: MDAY-D2 tumor growth in mice, three vanadyl compounds, Example 6B; format: in vivo; settings: for effect on tumor growth, in words: 10 mg/ml s.c. daily; for animals that died: 10 mg/ml, 50 μl s.c. daily for 16 days, groups of five mice
Description: (§4) In order to examine the ability of vanadyl compounds to reduce tumor formation, growth and metastases, a specific animal model which allows investigation of all of these processes in the same animal was chosen. This model involves the injection of a metastatic haematopoietic cell line, MDAY-D2, into mice subcutaneously. These cells form a tumor at the site of injection and its size can be easily determined. In addition, these cells metastasize to the liver and metastases can be detected histologically after day 17 to 19. This model provides a very sensitive and reproducible approach to investigate the effect of vanadyl compounds on tumor growth and metastases.
In a separate experiment using the same animal model, the effect of orthovanadate, vanadyl sulphate and vanadyl hydroperoxide administration on tumor growth in vivo was examined. On Day 1, 20 mice were injected with 2×10^5 MDAY-D2 cell subcutaneously. The mice were divided into four groups of five mice. At day 5, the animals were injected subcutaneously with 50 μl of water alone or containing 10 mg/ml of orthovanadate, 10 mg/ml of vanadyl sulphate, or 10 mg/ml of vanadyl hydroperoxide. This treatment was continued daily for 16 days. At day 21, the mice were sacrificed and the tumors dissected and weighed.

MDAY-D2 [5] = assay: Liver metastases of MDAY-D2 cells in mice (histology), Example 8; format: in vivo
Description: as §4
Livers were removed from animals treated as described above and prepared for histological examination. FIG. 16 compares liver sections from untreated (C), orthovanadate (VO)(500 μg/day) and vanadyl sulphate (VS)(500 μg/day) treated animals. Nodules are identified with an arrow.

MDAY-D2 cells = assay: Viability of MDAY-D2 cells with different vanadyl compounds; format: cell-based, mouse; settings: 0-50 μM, 48 hours; FIG. 8
Procedure: Three different forms of vanadyl compounds were examined for their effect on viability of cancer cell lines. MDAY-D2 cells were incubated in media containing 0-50 μM orthovanadate, vanadyl sulphate, or vanadyl hydroperoxide for 48 hours. The cells were harvested and the number of viable cells determined. […] Although there were slight differences in sensitivity, the overall cell death was similar.

mammary carcinogenesis = settings: dietary; cited from earlier work
cells = assay: Combined effect of H2O2 and orthovanadate on cell toxicity; format: cell-based; settings: 1 mM H2O2, 24 hours; FIG. 9
Procedure: If the orthovanadate induced formation of hydroxyl radicals is responsible for cell toxicity, then adding exogenous H2 O2 should enhance the effects of orthovanadate. Accordingly, cells were incubated in media alone or containing 1 mM H2 O2 or 10 μM orthovanadate or both for 24 hours. The cells were harvested and cell viability determined.

[6] = test system: Chondrocytes (reactive oxygen intermediates; NADPH oxidase); assay: FACS analysis of reactive oxygen intermediates/superoxide production in chondrocytes (dihydroxyrhodamine); format: cell-based, bovine; settings: inhibition, FIG. 1
Procedure: Chondrocytes (i.e. bovine chondrocytes plated as described in Kandel R. A. et al. Biochim. Biophys. Acta. 1053, 130-134, 1990) were incubated with dihydroxyrhodamine for 5 min (DHR) or for 4 hours in the absence (-IL 1 ) or presence of IL 1 (+IL 1), or in the presence of both IL 1 and the NADPH inhibitor, diphenyl iodonium, (+IL 1, +DPI).

PGE2 = PGE2 production by chondrocytes (RIA); format: cell-based, bovine; settings: stimulation, 6 hours, monolayer culture
Procedure: as §3, with “Chondrocytes were washed in PBS and the total RNA extracted as previously described (Cruz. et al, 1991, Biochem. J. 277, 327-330). RNA samples were run on formaldehyde agarose gels and transferred to nylon membrane for northern analysis using cDNA probes for c-fos and c-jun.” left out

collagenase [7] = assay: Collagenase production by chondrocytes (ELISA of conditioned medium); format: cell-based, bovine; settings: stimulation, 24 hours, monolayer culture
Procedure: as §3, with “Chondrocytes were washed in PBS and the total RNA extracted as previously described (Cruz. et al, 1991, Biochem. J. 277, 327-330). RNA samples were run on formaldehyde agarose gels and transferred to nylon membrane for northern analysis using cDNA probes for c-fos and c-jun.” left out

PLA2 = assay: 3H-arachidonic acid release by chondrocytes (PLA2 activity); format: cell-based, bovine; settings: stimulation, IL 1 10 ng/ml or PMA 100 mg/ml, 10 min
Procedure: as §3, with “Chondrocytes were washed in PBS and the total RNA extracted as previously described (Cruz. et al, 1991, Biochem. J. 277, 327-330). RNA samples were run on formaldehyde agarose gels and transferred to nylon membrane for northern analysis using cDNA probes for c-fos and c-jun.” left out

[8] = 20 mM N-acetylcysteine for 20 min, FIG. 5

Compound: CC(=O)N[C@@H](CS)C(=O)O [N-acetylcysteine]
- levels of collagenase expression in response to IL 1 (collagenase [1]; [8]): reduce
- effect on slight toxic effects observed with orthovanadate alone (MDAY-D2 [2]; N-acetylcysteine co-administered): appeared to reduce the slight toxic effects
- tumor growth inhibition in vivo, in words (MDAY-D2 [2]; combination therapy): capable of reducing tumor growth to some extent
- levels of fos expression in response to IL 1 (fos; [8]): reduce
- fos expression in response to factors such as IL 1 or arachidonic acid (fos): completely inhibit
- jun expression in response to factors such as IL 1 or arachidonic acid (jun): completely inhibit
- levels of superoxides and H2O2 in cells (superoxides and H2O2): indirectly reduce

Compound: Cc1c(C)c2c(c(C)c1O)CCC(C)(CCCC(C)CCCC(C)CCCC(C)C)O2 (stereo not drawn) [α-tocopherol]
- anticancer activity (carcinogenesis): reported to have anticancer activity

Compound: CC1=C(/C=C/C(C)=C/C=C/C(C)=C/C=C/C=C(C)/C=C/C=C(C)/C=C/C2=C(C)CCCC2(C)C)C(C)(C)CCC1 [β-carotene]
- anticancer activity (carcinogenesis): reported to have anticancer activity

Compound: COc1cc2c(c(OC)c1OC)-c1ccc(OC)c(=O)cc1[C@@H](NC(C)=O)CC2 [colchicine]
- killing of drug resistant cell lines by conventional chemotherapeutic agents [3]: not killed

Compound: O=S(=O)([O-])[O-].[O]=[V+2] [vanadyl sulphate]
- effect on tumor growth, in words (MDAY-D2 [4]): reduced tumors size in all of the animals; also recorded: less effective
- animals that died (MDAY-D2 [4]): One animal died
- levels of metastases in liver (MDAY-D2 [5]; 500 μg/day, FIG. 16): did not have detectable levels of metastases
- effectiveness at preventing metastases (MDAY-D2 [5]; preliminary results, liver histology): effective at preventing metastases
- effectiveness in killing MDAY-D2 cells (MDAY-D2 cells): equally effective
- inhibition of chemically induced mammary carcinogenesis (mammary carcinogenesis): inhibit

Compound: vitamin E
- anticancer activity (carcinogenesis): reported to have anticancer activity

Compound: OO [H2 O2, hydrogen peroxide]
- cell toxicity of H2O2 alone (cells): small effect
- stimulation of fos expression (fos; H2O2 for 30, 60 and 90 minutes, FIG. 3): stimulates

Compound: c1ccc([I+]c2ccccc2)cc1 [diphenyl iodonium (DPI), diphenyl iodonium]
- IL 1 induced and constitutive collagenase expression (collagenase [1]; Northern blot, FIG. 2): suppress
- constitutive and IL 1 induced reactive oxygen intermediates [6]: completely inhibits
- IL 1 induction of fos (fos; Northern blot, FIG. 2): suppressed
- fos expression in response to factors such as IL 1 or arachidonic acid (fos): completely inhibit
- jun expression in response to factors such as IL 1 or arachidonic acid (jun): completely inhibit

Compound: O=C1O[C@H]([C@@H](O)CO)C(O)=C1O [vitamin C, ascorbic acid]
- anticancer activity (carcinogenesis): reported to have anticancer activity

Compound: COc1cccc2c1C(=O)c1c(O)c3c(c(O)c1C2=O)C[C@@](O)(C(=O)CO)C[C@@H]3O[C@H]1C[C@H](N)[C@H](O)[C@H](C)O1 [doxorubicin]
- killing of drug resistant cell lines by conventional chemotherapeutic agents [3]: not killed

Compound: N[C@@H](CCC(=O)N[C@@H](CS)C(=O)NCC(=O)O)C(=O)O [glutathione]
- anticancer activity (carcinogenesis): reported to have anticancer activity

Compound: vanadyl hydroperoxide
- effect on tumor growth, in words (MDAY-D2 [4]): too toxic to evaluate its efficacy
- animals that died (MDAY-D2 [4]): all five died
- effectiveness in killing MDAY-D2 cells (MDAY-D2 cells): equally effective

Compound: CCCCC/C=C\C/C=C\C/C=C\C/C=C\CCCC(=O)O [AA, arachidonic acid]
- expression of c-fos (fos): stimulated
- expression of c-jun (jun): stimulated

Compound: CCCCCCCCCCCCCC(=O)OC1C(C)C2(O)C(C=C(CO)CC3(O)C(=O)C(C)=CC32)C2C(C)(C)C12OC(C)=O (centres unmarked) [PMA, reference compound]
- production of PGE2 (PGE2): induced
- production of collagenase (collagenase [7]): induced
- expression of c-fos (fos): stimulated
- expression of c-jun (jun): stimulated
- release of 3H-AA (PLA2): induced

Compound: CC[C@]1(O)C[C@@H]2CN(CCc3c([nH]c4ccccc34)[C@@](C(=O)OC)(c3cc4c(cc3OC)N(C)[C@H]3[C@@](O)(C(=O)OC)[C@H](OC(C)=O)[C@]5(CC)C=CCN6CC[C@]43[C@@H]65)C2)C1 [vinblastine]
- killing of drug resistant cell lines by conventional chemotherapeutic agents [3]: not killed
